Experimental data from ChEMBL document CHEMBL1128924, “Some benzenesulfonamido-substituted valerophenones that are selective antagonists for the 5-HT2C receptor” (Bioorg Med Chem Lett, 1996).

Assays:
Format in all cases: cell-based
[1] = biological target: 5-hydroxytryptamine receptor 2B (Homo sapiens, UniProt P41595); test: Displacement of [3H]-5-5HT from human cloned 5-hydroxytryptamine 2B receptor expressed in CHO-K1 cells
[2] = biological target: T1, 5-hydroxytryptamine receptor 2A (Homo sapiens, UniProt P28223); test: Compound was evaluated for displacement of [3H]ketanserin from human cloned 5-hydroxytryptamine 2A receptor in transfected CHO-K1 cells
[3] = biological target: T2, 5-hydroxytryptamine receptor 2C (Homo sapiens, UniProt P28335); test: Displacement of [3H]mesulergine from human cloned 5-hydroxytryptamine 2C receptor expressed in CHO-K1 cells
T2 sequence (P28335 whole entry): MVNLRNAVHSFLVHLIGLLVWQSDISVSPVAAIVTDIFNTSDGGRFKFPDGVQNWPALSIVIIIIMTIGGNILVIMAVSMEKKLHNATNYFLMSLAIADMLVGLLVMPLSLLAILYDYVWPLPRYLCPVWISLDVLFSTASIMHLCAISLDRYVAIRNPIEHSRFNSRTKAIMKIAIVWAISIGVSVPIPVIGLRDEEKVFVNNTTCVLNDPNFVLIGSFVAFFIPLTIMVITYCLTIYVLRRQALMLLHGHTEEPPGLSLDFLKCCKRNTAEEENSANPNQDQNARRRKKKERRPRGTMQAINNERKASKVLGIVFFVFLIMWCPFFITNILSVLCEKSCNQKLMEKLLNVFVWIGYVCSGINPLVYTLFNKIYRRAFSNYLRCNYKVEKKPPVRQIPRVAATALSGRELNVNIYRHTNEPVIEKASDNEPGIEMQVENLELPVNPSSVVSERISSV

[4] = biological target: T1, 5-hydroxytryptamine receptor 2A; test: Displacement of [3H]-ketanserin from human cloned 5-hydroxytryptamine 2A receptor expressed in CHO-K1 cells.
[5] = biological target: 5-hydroxytryptamine receptor 2A (Rattus norvegicus, UniProt P14842); test: Compound was evaluated for displacement of [3H]ketanserin from cloned rat 5-hydroxytryptamine 2A receptor in transfected CHO-K1 cells.
[6] = biological target: T3, 5-hydroxytryptamine receptor 2C (Rattus norvegicus, UniProt P08909); test: Compound was evaluated for displacement of [3H]mesulergine from cloned rat 5-hydroxytryptamine 2C receptor in transfected CHO-K1 cells.
T3 sequence (P08909 whole entry): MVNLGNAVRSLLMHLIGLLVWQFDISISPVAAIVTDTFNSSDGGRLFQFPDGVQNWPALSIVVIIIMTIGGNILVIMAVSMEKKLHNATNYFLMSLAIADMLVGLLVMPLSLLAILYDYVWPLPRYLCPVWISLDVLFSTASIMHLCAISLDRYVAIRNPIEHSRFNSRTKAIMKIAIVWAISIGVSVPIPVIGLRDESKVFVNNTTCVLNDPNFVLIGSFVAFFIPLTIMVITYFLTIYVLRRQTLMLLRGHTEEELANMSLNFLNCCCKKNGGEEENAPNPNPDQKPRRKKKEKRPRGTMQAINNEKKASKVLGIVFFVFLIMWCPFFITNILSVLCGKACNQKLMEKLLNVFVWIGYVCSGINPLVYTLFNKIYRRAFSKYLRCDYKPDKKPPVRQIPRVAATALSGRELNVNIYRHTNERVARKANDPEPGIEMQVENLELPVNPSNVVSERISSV

5-hydroxytryptamine receptor 2A (Rattus norvegicus, UniProt P14842), sequence (P14842 whole entry, looked up): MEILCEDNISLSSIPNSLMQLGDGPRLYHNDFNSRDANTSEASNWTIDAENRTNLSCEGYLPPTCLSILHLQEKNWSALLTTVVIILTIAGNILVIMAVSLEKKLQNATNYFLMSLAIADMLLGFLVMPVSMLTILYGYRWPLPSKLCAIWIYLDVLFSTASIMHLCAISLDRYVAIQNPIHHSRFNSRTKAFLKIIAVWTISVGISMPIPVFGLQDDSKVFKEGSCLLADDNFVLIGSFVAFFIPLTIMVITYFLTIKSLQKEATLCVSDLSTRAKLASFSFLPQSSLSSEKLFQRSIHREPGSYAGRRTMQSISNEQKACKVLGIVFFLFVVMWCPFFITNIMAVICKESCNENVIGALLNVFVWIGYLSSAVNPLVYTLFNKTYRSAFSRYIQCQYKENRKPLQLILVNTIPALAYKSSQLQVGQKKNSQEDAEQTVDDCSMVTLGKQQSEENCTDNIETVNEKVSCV
T1 sequence (P28223 whole entry): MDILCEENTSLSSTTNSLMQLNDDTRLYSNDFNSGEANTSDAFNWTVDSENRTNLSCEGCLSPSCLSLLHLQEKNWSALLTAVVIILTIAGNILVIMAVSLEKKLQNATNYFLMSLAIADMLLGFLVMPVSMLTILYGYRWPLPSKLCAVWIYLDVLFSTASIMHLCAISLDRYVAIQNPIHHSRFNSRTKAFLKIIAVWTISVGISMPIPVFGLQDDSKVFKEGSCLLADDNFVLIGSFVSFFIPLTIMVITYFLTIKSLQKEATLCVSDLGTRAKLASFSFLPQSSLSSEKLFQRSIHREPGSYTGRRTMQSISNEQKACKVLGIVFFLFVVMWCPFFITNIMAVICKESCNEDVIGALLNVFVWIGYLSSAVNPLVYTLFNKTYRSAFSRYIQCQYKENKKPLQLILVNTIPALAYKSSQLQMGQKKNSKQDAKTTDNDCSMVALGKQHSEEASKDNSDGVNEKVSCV
5-hydroxytryptamine receptor 2B, sequence (P41595 whole entry): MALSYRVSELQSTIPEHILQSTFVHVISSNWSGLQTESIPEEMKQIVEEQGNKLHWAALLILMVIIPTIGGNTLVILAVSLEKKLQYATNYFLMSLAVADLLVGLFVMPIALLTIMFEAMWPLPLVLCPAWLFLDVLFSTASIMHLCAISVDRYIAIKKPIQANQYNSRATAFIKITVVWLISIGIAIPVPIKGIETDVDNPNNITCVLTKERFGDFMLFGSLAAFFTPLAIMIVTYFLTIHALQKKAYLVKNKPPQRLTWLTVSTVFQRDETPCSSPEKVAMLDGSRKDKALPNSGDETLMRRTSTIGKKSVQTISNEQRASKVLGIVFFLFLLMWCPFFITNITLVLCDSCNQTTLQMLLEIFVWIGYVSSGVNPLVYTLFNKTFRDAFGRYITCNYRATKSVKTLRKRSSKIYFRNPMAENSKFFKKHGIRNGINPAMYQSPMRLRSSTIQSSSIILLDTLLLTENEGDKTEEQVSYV

Ki [1] [nM]	Ki [2] [nM]	Ki [3] [nM]	Ki [4] [nM]	Ki [5] [nM]	Ki [6] [nM]	SMILES
126	20	3.16				COc1ccc(OC)c(C(=O)CCCCN2CCC3(CC2)NC(=O)NC3=O)c1
398		398	> 10000			COc1cc(OC)c(C(=O)CCCCN2CCC3(CC2)NC(=O)NC3=O)cc1NS(=O)(=O)c1ccccc1Cl
126		10	> 10000			COc1cc(OC)c(C(=O)CCCCN2CCC3(CC2)NC(=O)NC3=O)cc1NS(=O)(=O)c1ccc(F)cc1
100	398	10				COc1cc(OC)c(-c2ccccc2)cc1C(=O)CCCCN1CCC2(CC1)NC(=O)NC2=O
200		50.1	2000			COc1cc(OC)c(C(=O)CCCCN2CCC3(CC2)NC(=O)NC3=O)cc1NS(=O)(=O)c1cccc(Cl)c1
251		39.8	> 10000			COc1cc(OC)c(C(=O)CCCCN2CCC3(CC2)NC(=O)NC3=O)cc1NS(=O)(=O)c1ccc(C(C)=O)cc1
				7.94	3.16	COc1ccc(Oc2ccccc2)cc1C(=O)CCCCN1CCC2(CC1)NC(=O)NC2=O
316		10	2510			COc1cc(OC)c(C(=O)CCCCN2CCC3(CC2)NC(=O)NC3=O)cc1NS(=O)(=O)c1ccc(C)cc1
1260		20	2000			COc1ccc(S(=O)(=O)Nc2cc(C(=O)CCCCN3CCC4(CC3)NC(=O)NC4=O)c(OC)cc2OC)cc1
398		1.58	1000			COc1cc(OC)c(C(=O)CCCCN2CCC3(CC2)NC(=O)NC3=O)cc1NS(=O)(=O)c1ccc(OC(F)(F)F)cc1
6.31	6.31	0.251				COc1cc(Cl)c(Cl)cc1C(=O)CCCCN1CCC2(CC1)NC(=O)NC2=O
1260		1.58	1260			COc1cc(OC)c(C(=O)CCCCN2CCC3(CC2)NC(=O)NC3=O)cc1NS(=O)(=O)c1ccc(C(C)C)cc1
316		39.8	> 10000			COc1cc(OC)c(C(=O)CCCCN2CCC3(CC2)NC(=O)NC3=O)cc1NS(=O)(=O)c1ccc(NC(C)=O)cc1

Further lines, the compound ahead of its results:

SMILES	Ki [1] [nM]	Ki [2] [nM]	Ki [3] [nM]	Ki [4] [nM]	Ki [5] [nM]	Ki [6] [nM]
COc1cc(OC)c(C(=O)CCCCN2CCC3(CC2)NC(=O)NC3=O)cc1NS(=O)(=O)c1cccc(C(F)(F)F)c1					794	100
COc1ccc(NS(=O)(=O)c2ccc(Cl)cc2)cc1C(=O)CCCCN1CCC2(CC1)NC(=O)NC2=O					7.94	2
COc1cc(OC)c(C(=O)CCCCN2CCC3(CC2)NC(=O)NC3=O)cc1NS(=O)(=O)c1ccccc1	631		31.6	3160		
COc1ccc(NS(=O)(=O)c2ccccc2)cc1C(=O)CCCCN1CCC2(CC1)NC(=O)NC2=O					20	6.31
COc1cc(OC)c(C(=O)CCCCN2CCC3(CC2)NC(=O)NC3=O)cc1NS(=O)(=O)c1ccc(Cl)cc1	79.4		5.01	794		
COc1cc(OC)c(C(=O)CCCCN2CCC3(CC2)NC(=O)NC3=O)cc1NS(=O)(=O)c1ccc(C#N)cc1	398		7.94	794		
COc1cc(OC)c(C(=O)CCCCN2CCC3(CC2)NC(=O)NC3=O)cc1NS(=O)(=O)c1ccc(S(N)(=O)=O)cc1	3160		79.4	> 10000		
COc1ccc(Cl)cc1C(=O)CCCCN1CCC2(CC1)NC(=O)NC2=O	50.1	12.6	3.98			
COc1cc(OC)c(C(=O)CCCCN2CCC3(CC2)NC(=O)NC3=O)cc1N					126	39.8
COc1cc(Cl)ccc1C(=O)CCCCN1CCC2(CC1)NC(=O)NC2=O	200	126	6.31			
COc1ccccc1C(=O)CCCCN1CCC2(CC1)NC(=O)NC2=O	> 10000	> 10000	> 10000			
COc1cc(OC)c(C(=O)CCCCN2CCC3(CC2)NC(=O)NC3=O)cc1Cl					5.01	0.631
COc1ccc(-c2ccccc2)cc1C(=O)CCCCN1CCC2(CC1)NC(=O)NC2=O	10	1	0.2			
CN1C[C@@H](NS(=O)(=O)N(C)C)C[C@@H]2c3cccc4c3c(cn4C)C[C@H]21 [MESULERGINE]	2			20		
COc1cc(OC)c(C(=O)CCCCN2CCC3(CC2)NC(=O)NC3=O)cc1NS(=O)(=O)c1ccc(C(F)(F)F)cc1 [RS-102,221]	316		2	631		
O=C(CCCN1CCC2(CC1)C(=O)NCN2c1ccccc1)c1ccc(F)cc1 [SPIPERONE]	1260		631			
